US11566002B2, “Substituted tetrahydrocyclopenta[C]pyrroles, substituted dihydropyrrolizines, analogues thereof, and methods using same” (priority 2018, dated 2023)

Test system: HBV rcDNA
Experiment: HepDE19 assay with bDNA quantitation of HBV rcDNA
Type: cell-based, hepatitis B virus
Details: HepDE19 cells, Tet-free medium, 7 day-incubation, rcDNA measured by Quantigene 2.0 bDNA assay, top concentration 25 μM; read-out: DE-19 bDNA EC50
Procedure, shortened: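 HepDE19 cells (50,000/well) switched to Tet-free medium, then treated 7 days at 37° C with compounds from 25 μM (½-log, 8-point, duplicate; 0.5% DMSO). rcDNA quantified by bDNA with HBV probes; EC50/EC90 by 4-parameter fit. CC50 from CTG ATP on 5,000 cells/well after 4 days.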

| SMILES | EC50 [µM] |
| --- | --- |
| Cn1cnc(COC(=O)NC2CCc3c2c(C(F)(F)F)n(C)c3C(=O)Nc2ccc(F)c(Cl)c2)n1 (stereo not drawn) [Compound 123] | 8 |
| Cn1nnc(COC(=O)NC2CCc3c2cn(C)c3C(=O)Nc2ccc(F)c(Cl)c2)n1 (stereo not drawn) [Compound 142, (2-Methyl-1H-tetrazol-5-yl)methyl (1-((3-chloro-4-fluorophenyl)carbamoyl)-2-methyl-2,4,5,6-tetrahydrocyclopenta[c]pyrrol-4-yl)carbamate] | 3.2 |
| Cn1nnc(COC(=O)NC2CCc3c2cn(C)c3C(=O)Nc2ccc(F)c(Cl)c2)n1 (stereo not drawn) [Compound 143, (2-Methyl-1H-tetrazol-5-yl)methyl(1-((3-chloro-4-fluorophenyl)carbamoyl)-2-methyl-2,4,5,6-tetrahydrocyclopenta[c]pyrrol-4-yl)carbamate] | 0.07 |
